Assays:
Ephx2 = Ephx2 gene expression by qPCR after CL316,243 treatment; type: in vivo; conditions: mice, daily 1 mg/kg intraperitoneally for 10 days
Protocol: (§1) Total RNA was extracted from tissue with Trizol and purified using a spin column kit (Zymo Research). RNA (500 ng-1 μg) was reverse transcribed with a high-capacity complementary DNA (cDNA) reverse transcription kit (Applied Biosystems). Real-time PCR was performed in mouse tissues starting with 10 ng of cDNA and forward and reverse oligonucleotide primers (300 nM each) in a final volume of 10 μl with SYBR green PCR Master Mix (Roche). Fluorescence was determined and analyzed in an ABI Prism 7900 sequence detection system (Applied Biosystems). Acidic ribosomal phosphoprotein P0 (ARBP) expression was used to normalize gene expression.

Ephx1 = Ephx1 gene expression by qPCR after CL316,243 treatment; type: in vivo; conditions: mice, daily 1 mg/kg intraperitoneally for 10 days
Protocol: as §1

mature brown adipocytes = experiment: In vitro fatty acid uptake (FFA-SS-Luc) in brown adipocytes constitutively expressing luciferase; type: cell-based, mice; conditions: data not shown
Protocol: Stromal vascular cells were isolated from interscapular brown adipose tissue dissected from TgLuc mice (Stock no. 008450) obtained from The Jackson Laboratory. Cells were immortalized and differentiated into adipocytes in vitro according to the WT-1 protocol (Tseng, Y. H. et al., Mol. Cell Biol. 24, 1918-1929 (2004)). After 1 hour of serum starvation, mature adipocytes were treated with 1 μM 12,13-diHOME or methyl acetate vehicle in 0.1% w/v BSA in PBS for 15 minutes. After this treatment, cells were incubated with 10 μm FFA-SS-Luc (Intrace Medical) and imaged using the IVIS Spectrum CT using sequential 30 s exposures for 1 hour. Data was analyzed using Living Image Software and movies were assembled from individual images using ImageJ. All cultures were confirmed to be Mycoplasma free.

[1] = Acute BAT activation, serum 12,13-diHOME by LC-MS/MS; type: in vivo; conditions: mice treated for 30 minutes
Protocol: All lipid standards were purchased from Cayman Chemical Company, Avanti Polar Lipids, or Santa Cruz Biotechnology, Inc. C18SPE cartridges were purchased from Biotage. All solvents are of HPLC or LC-MS/MS grade and were acquired from Sigma-Aldrich, Fisher Scientific, or VWR International. Tissue samples were homogenized in 0.1×PBS in Omni homogenizing tubes with ceramic beads at 4° C. Aliquots of 100 μL serum or 1 mg protein of homogenized tissue (measured by BCA) were taken, depending on the experiment. A mixture of deuterium-labeled internal standards was added to each aliquot, followed by 3× volume of sample of cold methanol (MeOH). Samples were vortexed for 5 min and stored at -20° C. overnight. Cold samples were centrifuged at 14,000 g for 10 min, and the supernatant was then transferred to a new tube and 3 mL of acidified H2O (pH 3.5) was added to each sample prior to C18 SPE and performed as previously described (Powell, W. S., Methods Mol Biol. 120, 11-24 (1999)). The methyl formate fractions were collected, dried under nitrogen, and reconstituted in 50 μL MeOH:H2O (1:1, by vol). […] The identity of a component was confirmed using PeakView® software (SCIEX), and quantification was performed using MultiQuantTM software (SCIEX). The quantification of 12,13-diHOME was performed against a standard calibration curve built with 5 points ranging from 0.01 pg/μL to 100 pg/μL. […]

SMILES	Ephx2 expression in BAT (Ephx2)	Ephx1 expression in sWAT (Ephx1)	effect of NE treatment added to 12,13-diHOME on FFA-SS-Luc uptake in vitro (mature brown adipocytes)	12,13-diHOME production (serum concentration) [1]
C[C@H](Cc1ccc2c(c1)OC(C(=O)[O-])(C(=O)[O-])O2)NC[C@H](O)c1cccc(Cl)c1.[Na+].[Na+] [CL316,243]	increased	increased		
NC[C@H](O)c1ccc(O)c(O)c1 [NE, Norepinephrine, reference compound]			no additive effect	induced
